The series can be described thus: Stability of the prior-art amorphous solid form in the solid pharmaceutical form under ICH accelerated conditions. The series is classed as physicochemical. Conditions: amorphous solid form described in EP 129 26 07, ICH accelerated conditions (40° C., 75% r.h.). The text has this:
According to the details disclosed in the literature, it is not possible to prepare the individual intermediates on the manufacturing scale in such a way that the medicinally active asoprisnil and its precursors can be obtained therefrom reliably and reproducibly and having the analytical parameters required by the authorities or by the legislation pursuant to ICH Q6A Guidance, 2000, such as byproduct profile, content of active ingredient, chemical and physical purity, and stability. […] The suitability of the asoprisnil obtainable by this method for a solid pharmaceutical form is accordingly low.

As for `COC[C@]1(OC)CC[C@H]2[C@@H]3CCC4=CC(=O)CCC4=C3[C@@H](c3ccc(/C=N/O)cc3)C[C@@]21C` [asoprisnil, 4-[17β-methoxy-17α-methoxymethyl-3-oxoestra-4,9-dien-11β-yl]benzaldehyde (E)-oxime], the “Physical stability in the solid pharmaceutical form (recrystallization)” value was “partial to complete recrystallization”.

The values are drawn from patent publication US8324412B2, “Method for preparing 4-[17β-methoxy-17α-methoxymethyl-3-oxoestra-4,9-dien-11β-yl]benzaldehyde (E)-oxime (asoprisnil)” (Bayer Pharma AG, priority 2006, dated 2012).
